What was measured:
[1] = target: T1, human recombinant L1196M ALK kinase domain (amino acids 1093-1411) (Homo sapiens, UniProt Q9UM73, L1196M); test: L1196M mutant ALK enzyme assay (microfluidic mobility shift); format: biochemical; conditions: ATP 60 μM, 0.5 nM enzyme, competitive inhibition fit; read-out: L1196M ALK enzyme assay (Ki)
T1 construct: ALK kinase domain (amino acids 1093-1411); made in house

[2] = target: T2, WT EML4-ALK (NIH-3T3 EML4-ALK wt v1 cells) (Homo sapiens, UniProt Q9UM73); test: Cellular phospho-ALK (Tyr1604) ELISA assay for WT EML4-ALK; format: cell-based; conditions: 1 hour, read-out: ELISA assay for WT EML4-ALK (IC50)
T2 construct: expressed in transfected cells; the other entry of the earlier key: EML4 (Q9HC35, Echinoderm microtubule-associated protein-like 4)

[3] = target: T3, human recombinant wild-type ALK kinase domain (amino acids 1093-1411) (Homo sapiens, UniProt Q9UM73); test: Wild-type ALK enzyme assay (microfluidic mobility shift); format: biochemical; conditions: ATP 60 μM, competitive inhibition fit, read-out: WT ALK enzyme assay (Ki)
T3 construct: ALK kinase domain (amino acids 1093-1411); made in house
Method: The reactions were incubated for 1 h at room temperature, stopped by the addition of 0.1 M EDTA, pH 8, and the extent of reactions (˜15-20% conversion with no inhibitor) was determined after electrophoretic separation of the fluorescently labeled peptide substrate and phosphorylated product on an LabChip EZ Reader II (Caliper Life Sciences, Hopkinton, Mass.).

[4] = target: T4, L1196M EML4-ALK (NIH-3T3 EML4-ALK v1 L1196M cells) (Homo sapiens, UniProt Q9UM73, L1196M); test: Cellular phospho-ALK (Tyr1604) ELISA assay for L1196M EML4-ALK; format: cell-based; conditions: NIH-3T3 EML4-ALK v1 L1196M cells, 1 hour, phospho-ALK (Tyr1604); read-out: ELISA assay for L1196M EML4-ALK (IC50)
T4 construct: expressed in transfected cells; the other entry of the earlier key: EML4 (Q9HC35, Echinoderm microtubule-associated protein-like 4)

Row | Compound | Ki [1] [nM] | IC50 [2] [nM] | Ki [3] [nM] | IC50 [4] [nM]
1 | CC1Cc2cc(cnc2N)-c2c(nn(C)c2C#N)CN(C)C(=O)c2ccc(F)cc21 (single isomer, unassigned) [Example 63, 7-amino-12-fluoro-2,10,16-trimethyl-15-oxo-2,9,10,15,16,17-hexahydro-8,4-(metheno)pyrazolo[3,4-d][2,8]benzodiazacyclotetradecine-3-carbonitrile] | 0.13 | 1.95 | 0.12 | 8.7
2 | COc1nn(C)c2c1-c1cnc(N)c(c1)OC(CF)c1cc(F)ccc1C(=O)N(C)C2 (single isomer, unassigned) [Example 86, 7-amino-12-fluoro-10-(fluoromethyl)-3-methoxy-1,16-dimethyl-16,17-dihydro-1H-8,4-(metheno)pyrazolo[4,3-h][2,5,11]benzoxadiazacyclotetradecin-15(10H)-one] | 0.1 | 0.45 | < 0.2 | 2.57
3 | CN1Cc2c(c(C#N)nn2C)-c2cnc(N)c(n2)OC(CF)c2ccccc2C1=O (single isomer, unassigned) [Example 127] | 0.52 | 2.5 | 0.099 | 65
4 | CC1Oc2cc(cnc2N)-c2c(nn(C)c2C#N)CN(C)C(=O)c2c(F)cccc21 (single isomer, unassigned) [Example 52, 7-amino-14-fluoro-2,10,16-trimethyl-15-oxo-10,15,16,17-tetrahydro-2H-8,4-(metheno)pyrazolo[4,3-h][2,5,11]benzoxadiazacyclotetradecine-3-carbonitrile] | 10.2 | 4.78 | 1.2 | 296
5 | CC1Cc2cc(cnc2N)-c2c(nn(C)c2C#N)CN(C)C(=O)c2ccc(F)cc21 (single isomer, unassigned) [Example 64, 7-amino-12-fluoro-2,10,16-trimethyl-15-oxo-2,9,10,15,16,17-hexahydro-8,4-(metheno)pyrazolo[3,4-d][2,8]benzodiazacyclotetradecine-3-carbonitrile] | 33.3 | 407 | 34.4 | 1190
6 | CC1c2nn(C)c(C#N)c2-c2cnc(N)c(n2)OCc2cc(F)ccc2C(=O)N1C (stereo not shown) [Example 78, 7-amino-12-fluoro-2,16,17-trimethyl-15-oxo-10,15,16,17-tetrahydro-2H-8,4-(azeno)pyrazolo[4,3-h][2,5,11]benzoxadiazacyclotetradecine-3-carbonitrile] | 9.61 | 40.8 | 2.93 | 350
7 | CN1Cc2nn(C)c(C#N)c2-c2cnc(N)c(n2)OCc2cc(F)ccc2C1=O [Example 46, 7-amino-12-fluoro-2,16-dimethyl-15-oxo-10,15,16,17-tetrahydro-2H-8,4-(azeno)pyrazolo[4,3-h][2,5,11]benzoxadiazacyclotetradecine-3-carbonitrile] | 1.1 | 10.4 | 0.15 | 44.7
8 | COc1nn(C)c2c1-c1cnc(N)c(c1)OC(C1CC1)c1cc(F)ccc1C(=O)N(C)C2 (single isomer, unassigned) [Example 26, 7-amino-10-cyclopropyl-12-fluoro-3-methoxy-1,16-dimethyl-16,17-dihydro-1H-8,4-(metheno)pyrazolo[4,3-h][2,5,11]benzoxadiazacyclotetradecin-15(10H)-one] | 15 | 50.5 | 3.3 | 511
9 | C[C@H]1Oc2cc(cnc2N)-c2c(nc3ccccn23)CN(C)C(=O)c2ccc(F)cc21 [Example 50, (5R)-8-amino-3-fluoro-5,19-dimethyl-18,19-dihydro-7,11-(metheno)pyrido-[2′,1′:2,3]imidazo[4,5-h][2,5,11]benzoxadiazacyclotetradecin-20(5H)-one] | 1.2 | 2.37 | 0.14 | 29.7
10 | C[C@H]1Oc2cc(cnc2N)-c2c(nn(C)c2C#N)CNC(=O)c2ccc(F)cc21 [Example 132, (10R)-7-amino-12-fluoro-2,10-dimethyl-15-oxo-10,15,16,17-tetrahydro-2H-8,4-(metheno)pyrazolo[4,3-h][2,5,11]benzoxadiazacyclotetradecine-3-carbonitrile] | 16.5 | 35.3 | 3.32 | 892
11 | CC1Oc2nc(cnc2N)-c2c(nn(C)c2C#N)Cn2ccnc2-c2ccc(F)cc21 (single isomer, unassigned) [Example 109, 8-amino-3-fluoro-5,13-dimethyl-13,15-dihydro-5H-7,11-(azeno)imidazo[1,2-k]pyrazolo[4,3-h][2,5,11]benzoxadiazacyclotetradecine-12-carbonitrile] | 4.7 | 11 | 8.1 | 55.6
12 | COc1nn(C)c2c1-c1cnc(N)c(c1)OC(C1CC1)c1cc(F)ccc1C(=O)N(C)C2 (single isomer, unassigned) [Example 25, 7-amino-10-cyclopropyl-12-fluoro-3-methoxy-1,16-dimethyl-16,17-dihydro-1H-8,4-(metheno)pyrazolo[4,3-h][2,5,11]benzoxadiazacyclotetradecin-15(10H)-one] | 0.56 | 1.35 | < 0.2 | 21.9
13 | COc1cnc2cc1-c1cnc(N)c(c1)O[C@H](C)c1cc(F)ccc1C(=O)N(C)CC2 [Example 116, (1R)-4-amino-19-fluoro-9-methoxy-1,15-dimethyl-14,15-dihydro-1H-3,7:8,12-di(metheno)-2,5,11,15-benzoxatriazacyclooctadecin-16(13H)-one] | > 3000 | > 10000 | > 1500 | > 10000
14 | CN1Cc2ccc(S(C)(=O)=O)cc2-c2cnc(N)c(c2)OCc2cc(F)ccc2C1=O [Example 5, 8-amino-3-fluoro-17-methyl-13-(methylsulfonyl)-16,17-dihydro-7,11-(metheno)dibenzo[g,l][1,4,10]oxadiazacyclotetradecin-18(5H)-one] | 3.4 | 12.1 | 0.34 | 156
15 | CCc1snc2c1-c1cnc(N)c(c1)O[C@H](C)c1cc(F)ccc1C(=O)N(C)C2 [Example 110, (10R)-7-amino-3-ethyl-12-fluoro-10,16-dimethyl-16,17-dihydro-8,4-(metheno)[1,2]thiazolo[4,3-h][2,5,11]benzoxadiazacyclotetradecin-15(10H)-one] | 7.3 | 9.99 | 0.56 | 447
16 | CC1Cc2cc(cnc2N)-c2c(nn(C)c2C#N)CN(C)C(=O)c2ccc(F)cc21 (stereo not shown) [Example 61, 7-amino-12-fluoro-2,10,16-trimethyl-15-oxo-2,9,10,15,16,17-hexahydro-8,4-(metheno)pyrazolo[3,4-d][2,8]benzodiazacyclotetradecine-3-carbonitrile] | 0.17 | 4.82 | 0.15 | 17.1
17 | 7-amino-3-tert-butyl-1,10,16-trimethyl-16,17-dihydro-1H-8,4-(metheno)-pyrazolo[4,3-g]pyrido[2,3-l][1,4,10]oxadiazacyclotetradecin-15(10H)-one [Example 120] | 821 | 2110 | 146 | > 10000
18 | CC1Oc2cc(F)ccc2C(=O)N(C)Cc2nn(C)c(C#N)c2-c2cnc(N)c1c2 (single isomer, unassigned) [Example 76, 7-amino-12-fluoro-2,9,16-trimethyl-15-oxo-2,15,16,17-tetrahydro-9H-8,4-(metheno)pyrazolo[4,3-h][1,5,11]benzoxadiazacyclotetradecine-3-carbonitrile] | 1.9 | 95.6 | 3.1 | 109
19 | CCc1onc2c1-c1cnc(N)c(n1)O[C@H](C)c1cc(F)ccc1C(=O)N(C)C2 [Example 48, (10R)-7-amino-3-ethyl-12-fluoro-10,16-dimethyl-16,17-dihydro-8,4-(azeno)[1,2]oxazolo[4,3-h][2,5,11]benzoxadiazacyclotetradecin-15(10H)-one] | 1.2 | 6.75 | 0.2 | 68.9
20 | CCCn1nnc2c1-c1cnc(N)c(c1)O[C@H](C)c1cc(F)ccc1C(=O)N(C)C2 [Example 41, (10R)-7-amino-12-fluoro-10,16-dimethyl-3-propyl-16,17-dihydro-3H-8,4-(metheno)[1,2,3]triazolo[4,5-h][2,5,11]benzoxadiazacyclotetradecin-15(10H)-one] | 19 | 33.1 | 1.5 | 680
21 | CCC1Oc2cc(cnc2N)-c2c(OC)nn(C)c2CN(C)C(=O)c2ccc(F)cc21 (single isomer, unassigned) [Example 23, 7-amino-10-ethyl-12-fluoro-3-methoxy-1,16-dimethyl-16,17-dihydro-1H-8,4-(metheno)pyrazolo[4,3-h][2,5,11]benzoxadiazacyclotetradecin-15(10H)-one] | 0.29 | 0.77 | < 0.2 | 10.1
22 | CCN1Cc2c(c(C)nn2C)-c2cnc(N)c(c2)OC(C)c2cc(F)ccc2C1=O (single isomer, unassigned) [Example 9, 7-amino-16-ethyl-12-fluoro-1,3,10-trimethyl-16,17-dihydro-1H-8,4-(metheno)pyrazolo[4,3-h][2,5,11]benzoxadiazacyclotetradecin-15(10H)-one] | 1.06 | 0.35 | 0.2 | 9.29

Source: patent US8680111B2 (Pfizer Inc., priority 2012, dated 2014)
